Where “and” joins values, the source holds several entries; their conditions need not be identical. Equal entries are not always repeated. Entries after “also recorded” stand apart in the source; their conditions may differ. Where two headings read alike, the source gives them in different places.
Key:
[1] = biological target: T1, rhodesain (Trypanosoma brucei rhodesiense, UniProt Q95PM0); experiment: biochemical; assay type: biochemical; settings: for inhibition at 20 µM: at 20 µM inhibitor, read-out: Rhod. % inh.; for fold improvement of rhodesain inhibition, acid compared to benzyl ester: 3 compared to 1, 4 compared to 2; for Rhod. t1/2: half-life of final complex, 0.693/k4; for Rhod. ΔEreac: reaction energy of second inhibition step from k3/k4; for Rhod. k3 / Rhod. k4: second inhibition step; for Rhod. k3: forward rate; for Rhod. k4: off-rate
T1 construct: made in house; host or cells: Pichia pastoris
T1 sequence (Q95PM0 entry or part of it): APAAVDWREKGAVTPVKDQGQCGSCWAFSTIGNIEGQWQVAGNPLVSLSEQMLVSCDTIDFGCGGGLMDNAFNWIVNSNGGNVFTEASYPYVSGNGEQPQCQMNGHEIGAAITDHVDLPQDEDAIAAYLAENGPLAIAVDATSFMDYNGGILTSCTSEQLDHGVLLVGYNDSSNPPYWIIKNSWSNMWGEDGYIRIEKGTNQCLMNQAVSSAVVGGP

[2] = biological target: T2, cathepsin L (Homo sapiens, UniProt P07711); experiment: Fluorometric cathepsin L inhibition assay (Cbz-Phe-Arg-AMC); assay type: biochemical; parameters: purchased Calbiochem, Merck Millipore; settings: for inhibition at 20 µM: at 20 µM inhibitor, read-out: Cath. L % inh.; for Cath. L t1/2: half-life of final complex, 0.693/k4; for Cath. L ΔEreac: reaction energy of second inhibition step from k3/k4; for Cath. L k3 / Cath. L k4: second inhibition step; for Cath. L k3: forward rate; for Cath. L k4: off-rate
T2 sequence (P07711 114-333): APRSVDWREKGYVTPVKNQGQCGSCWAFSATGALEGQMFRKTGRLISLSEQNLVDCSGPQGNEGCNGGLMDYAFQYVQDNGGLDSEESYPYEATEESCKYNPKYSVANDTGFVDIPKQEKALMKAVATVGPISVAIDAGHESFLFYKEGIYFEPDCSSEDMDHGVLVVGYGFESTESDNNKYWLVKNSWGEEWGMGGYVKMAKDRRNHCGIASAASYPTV

[3] = biological target: T2, cathepsin L; experiment: Dilution assay (reversibility), cathepsin L; settings: 5×IC50, 15 min incubation, 50-fold dilution
Description: Then, the mixture was diluted by 50-fold to yield a final inhibitor concentration of 10% of the IC50 concentration.
Fluorometric assays for cathepsin B and cathepsin L (Calbiochem, Merck
Millipore) were performed as described previously.[7,8] Cbz-Phe-Arg-AMC was used as substrate
(final conc.: 100 μM for cathepsin B, 6.5 μM for cathepsin L) in assay buffer (50 mM Tris, pH 6.5,
Recombinantly expressed rhodesain (0.9 mg/mL) or cathepsin L (Calbiochem, Merck Millipore) were
diluted 1:100 in enzyme buffer (rhodesain: 50 mM sodium acetate, pH 5.5, 5 mM EDTA, 200 mM
NaCl and 2 mM DTT; cathepsin L: 50 mM Tris, pH 6.5, 5 mM EDTA, 200 mM NaCl and 2 mM DTT)
and preincubated for 1 h at room temperature. 54 μL of the respective enzyme solution was treated
enzyme-inhibitor reactions were incubated for 15 min at room temperature to ensure complete
inhibition. 1.2 μL of each reaction mixture was diluted with 57.3 μL of the respective assay buffer
(rhodesain: 50 mM sodium acetate, pH 5.5, 5 mM EDTA, 200 mM NaCl, 0.005% Brij; cathepsin L:
Phe-Arg-AMC in DMSO (final conc.: 10 μM for rhodesain, 6.5 μM for cathepsin L) and monitored
with a Tecan Infinite M200 Pro plate reader (λ ex: 380 nm/λ em: 460 nm).

[4] = biological target: T1, rhodesain; experiment: Dilution assay (reversibility), rhodesain; assay type: biochemical; settings: 5×IC50, 50-fold dilution; data not shown
[5] = biological target: T3, NS3/NS2B protease of the Dengue virus (DENV PR) (Dengue virus type 2, UniProt P29990); experiment: Fluorometric DENV NS2B/NS3 protease assay (Boc-Gly-Arg-Arg-AMC); assay type: biochemical; settings: for inhibition at 20 µM: at 20 µM inhibitor, read-out: DENV PR % inh.
T3 construct: the NS3/NS2B protease of the Dengue virus (DENV PR)
T3 sequence (P29990 1346-1475): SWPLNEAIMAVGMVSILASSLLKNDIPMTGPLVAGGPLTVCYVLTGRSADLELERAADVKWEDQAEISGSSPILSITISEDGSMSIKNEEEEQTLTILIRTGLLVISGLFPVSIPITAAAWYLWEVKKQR
T3 sequence (P29990 1476-1653): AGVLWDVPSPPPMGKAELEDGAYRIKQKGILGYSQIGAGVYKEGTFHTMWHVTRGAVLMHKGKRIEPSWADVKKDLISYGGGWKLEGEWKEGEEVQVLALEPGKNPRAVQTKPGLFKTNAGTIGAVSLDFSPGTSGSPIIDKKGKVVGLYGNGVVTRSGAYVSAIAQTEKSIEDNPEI

[6] = biological target: T4, cathepsin B (Homo sapiens, UniProt P07858); experiment: Fluorometric cathepsin B inhibition assay (Cbz-Phe-Arg-AMC); assay type: biochemical; settings: for inhibition at 20 µM: at 20 µM inhibitor, read-out: Cath. B % inh.
T4 construct: purchased Calbiochem, Merck Millipore

[7] = biological target: T1, rhodesain; experiment: Dialysis assay (reversibility), rhodesain; assay type: biochemical; settings: 20×IC50, 30 min preincubation, dialysis up to 120 min
[8] = biological target: T1, rhodesain; experiment: Hydrolysis assay LC/MS (ester hydrolysis by rhodesain); assay type: biochemical; settings: 24 h incubation with rhodesain, 25 °C
Description: As reported previously for benzyl esters of the tested dipeptide sequence, we raised the hypothesis also in the current case, that the observed ester cleavage of the rhodesain–inhibitor adduct (Figure 5) might occur by rhodesain-catalyzed enzymatic hydrolysis. To verify this hypothesis, we incubated compounds 1, 2 (benzyl esters), compound 6 (methyl ester) and compound 8 (tert-butyl ester) for 24 h with rhodesain. The reaction mixtures were subsequently analyzed by LC–MS.
In fact, we found ester hydrolysis for the benzyl and methyl esters, but not for the tert-butyl ester. […] The unconverted ester 1 was eluted at tR = 3.19 min. Upon incubation with rhodesain, a peak at tR = 1.03 min was observed matching the retention time of the reference acid 3. […]
triplicates at different time points (0, 30, 60, 120 min) and reactions were initiated by the addition of […]
Hydrolysis assay – LC/MS:
Hydrolysis assays were performed as described previously.[12] To a solution of rhodesain […]
2 mM DTT) 1 μL of either cpd. 1, 2, 6 or 8 in DMSO (20 mM) was added and the mixtures was incubated for 24 h at 25 °C. As negative reaction control, 99 μL assay buffer was treated with pure cpd. 1, 2, 6 or 8 in DMSO (20 mM) without rhodesain. […]
(§1) (20 mM) was added and the absorbance was monitored for 2 h at 25 °C with a Tecan Spark 10M (λabs: […]

[9] = tested on: T. b. brucei 449 cell line; experiment: T. b. brucei cell survival assay (ATPlite); assay type: cell-based; settings: Trypanosoma brucei, 48 h; read-out: EC50 antitrypanosomal activity
Description: Benzyl ester 2 was tested for its antitrypanosomal activity as described previously.
5. T. b. brucei cell survival assay
Toxicity of 2 against trypanosomes ( T. b. brucei 449 cell line) were determined via an ATPlite assay as described previously[13–15] using the cellular ATP levels as a proxy for cell viability. 2 (5 mM stock solution in DMSO) was first diluted 1:3 in medium, followed by a 1:10 dilution step in a microplate and ten subsequent 1:2 dilution steps. 90 μL HMI-9 medium containing 2500 cells/mL were distributed in 96-well microplates (PerkinElmer). 10 μL of the 1:2 dilution step preparations of the tested compounds were added to the 90 μL cell suspension leading to final concentrations from 16.67 μM to 32.55 nM in the microplates. As a negative control, addition of 0.3% of DMSO corresponding to the highest DMSO concentration added by compound application was used. 10% DMSO was used as a positive control, since at this DMSO concentration, all cells die. […] 50 μL of ATPlite 1 step solution (PerkinElmer) was added to each well of the microplate and luminescence measured at room temperature with an Infinite® M200 PRO plate reader (Tecan Trading AG). The measured values were plotted against the compound concentrations top yield the dose-response curve. The EC 50 values were calculated using GraFit version 5.013 (Erithacus Software Ltd.).

[10] = biological target: T1, rhodesain; experiment: Hydrolysis assay UV-Vis (ester hydrolysis by rhodesain); assay type: biochemical; settings: for half-life at 250 µM: Trypanosoma brucei rhodesiense, rhodesain enzyme solution, pH 5.5, absorbance at 400 nm vs time, read-out: t1/2 of ester hydrolysis by rhodesain; for turnover curve of absorbance at 400 nm vs. time with rhodesain: monitored for 2 h at 25 °C
Description: Since the esters and the free carboxylic acid have different UV-Vis characteristics, we recorded time-dependent absorbance spectra at 400 nm (Figure 9).
Figure 9 Kinetic analysis of the ester hydrolysis by rhodesain. […]
Hydrolysis assay – UV-Vis:
To a solution of rhodesain (10 μg/mL) in 197.5 μL reaction buffer (50 mM sodium acetate, pH 5.5,
as §1

[11] = approximate value, read-out: Ki of initial non-covalent complex, Rhod
[12] = final complex, Dixon fit of vS vs [I], read-out: Rhod. Ki^* Method 2
[13] = final high-affinity complex, Ki/(1+k3/k4), read-out: Rhod. Ki^* Method 1
[14] = initial complex, Dixon fit of vi vs [I], read-out: Rhod. Ki Method 2
[15] = initial non-covalent complex, from kobs vs [I], read-out: Rhod. Ki Method 1
[16] = reversible, time-dependent inhibition, final high-affinity complex, mean of method 1 and method 2, read-out: Rhod. Ki^*
[17] = approximate value, read-out: Ki of initial non-covalent complex, CathL
[18] = final complex, Dixon fit of vS vs [I], read-out: Cath. L Ki^* Method 2
[19] = final high-affinity complex, Ki/(1+k3/k4), read-out: Cath. L Ki^* Method 1
[20] = initial complex, Dixon fit of vi vs [I], read-out: Cath. L Ki Method 2
[21] = initial non-covalent complex, from kobs vs [I], read-out: Cath. L Ki Method 1
[22] = reversible, time-dependent inhibition, final high-affinity complex, mean of method 1 and method 2, read-out: Cath. L Ki^*

SMILES	inhibition at 20 µM [1]	inhibition at 20 µM [2]	reactivation of enzyme activity after dilution, cathepsin L [3]	reactivation of enzyme activity after dilution, rhodesain [4]	inhibition at 20 µM [5]	inhibition at 20 µM [6]	Ki [2, 18]	Ki [2, 19]	Ki [2, 20]	Ki [2, 21]	Ki [2, 22]	Cath. L k3 [2]	Cath. L k4 [2]	recovery of rhodesain activity by dialysis [7]	Ki ([1]; read-out: Rhod. Ki)	other results
CC(C)C[C@H](NC(=O)[C@H](Cc1ccccc1)NC1=C(Cl)C(=O)c2ccccc2C1=O)C(=O)OC(C)(C)C [Compound 7]	51%	38%	–	–	–	–	–	–	–	–	–	–	–	–	–	–
CC(C)C[C@H](NC(=O)[C@H](Cc1ccccc1)NC1=C(Cl)C(=O)c2ccccc2C1=O)C(=O)O [Compound 3]	–	–	full reactivation	full reactivation	43%	25%	61 nM	53 nM	345 nM	443 nM	57 nM	0.0052 s⁻¹	0.0007 s⁻¹	the enzymatic activity was restored	–	fold improvement of rhodesain inhibition, acid compared to benzyl ester [1]: ca. 120 fold; Ki [1, 11]: ~60 nM; Ki [1, 12]: 36 nM; Ki [1, 13]: 11 nM; Rhod. t1/2 [1]: 19.25 min; Ki [1, 14]: 63 nM; Ki [1, 15]: 57 nM; Rhod. ΔEreac [1]: -0.85 kcal/mol; Ki [1, 16]: 24 nM; Rhod. k3 [1]: 0.0025 s⁻¹; Rhod. k4 [1]: 0.0006 s⁻¹; fold improvement of cathepsin L inhibition, acid compared to benzyl ester ([2]; 3 compared to ester 1): 20 fold; Ki [2, 17]: ~400 nM; Cath. L t1/2 [2]: 16.5 min; Cath. L ΔEreac [2]: -1.2 kcal/mol
COC(=O)[C@H](CC(C)C)NC(=O)[C@H](Cc1ccccc1)NC1=C(Cl)C(=O)c2ccccc2C1=O [Compound 5]	48%	45%	–	–	–	–	–	–	–	–	–	–	–	–	–	–
CC(C)C[C@H](NC(=O)[C@H](Cc1ccccc1)NC1=C(C#N)C(=O)c2ccccc2C1=O)C(=O)OC(C)(C)C [Compound 8]	38%	21%	–	–	–	–	–	–	–	–	–	–	–	–	–	–
CN1CCN(C(=O)N[C@@H](Cc2ccccc2)C(=O)N[C@H](/C=C/S(=O)(=O)c2ccccc2)CCc2ccccc2)CC1 [K11777, reference compound]	–	–	no recovery was observed	–	–	–	–	–	–	–	–	–	–	the enzyme activity could not be recovered	–	–
CC(C)C[C@H](NC(=O)[C@H](Cc1ccccc1)NC1=C(C#N)C(=O)c2ccccc2C1=O)C(=O)O [Compound 4]	–	–	full reactivation	full reactivation	38%	45%	15 nM	19 nM	91 nM	129 nM	17 nM	0.0051 s⁻¹	0.0009 s⁻¹	the enzymatic activity was restored; also recorded: only slow reactivation	–	fold improvement of rhodesain inhibition, acid compared to benzyl ester [1]: ca. 1200 fold; Ki [1, 11]: ~0.4 nM; Ki [1, 12]: 0.2 nM; Ki [1, 13]: 0.1 nM; Rhod. t1/2 [1]: 19.25 min; Ki [1, 14]: 0.32 nM; Ki [1, 15]: 0.47 nM; Rhod. ΔEreac [1]: -0.89 kcal/mol; Ki [1, 16]: ~0.15 nM and 0.15 nM; Rhod. k3 [1]: 0.0027 s⁻¹; Rhod. k4 [1]: 0.0006 s⁻¹; Ki [2, 17]: ~100 nM; Cath. L t1/2 [2]: 12.8 min; Cath. L ΔEreac [2]: -1.1 kcal/mol
CC(C)CC(NC(=O)C(Cc1ccccc1)NC1=C(Cl)C(=O)c2ccccc2C1=O)C(=O)OCc1ccccc1 [Compound 1, Benzyl-N-(3-chloro-1,4-dioxo-1,4-dihydronaphthalen-2-yl)-L-phenylalanyl-L-leucinate]	–	–	full reactivation; also recorded: nearly fully recovered	40–50%	41%	53%	–	–	–	–	–	–	–	–	2900 nM	ester hydrolysis by rhodesain (LC–MS) [8]: rhodesain-catalyzed ester hydrolysis; Ki ([2]; from plots of IC50 vs substrate concentration (Cheng–Prusoff), read-out: Cath. L Ki): 1140 nM
CC(C)C[C@H](NC(=O)[C@H](Cc1ccccc1)NC1=C(C#N)C(=O)c2ccccc2C1=O)C(=O)OCc1ccccc1 [Compound 2]	–	–	full reactivation; also recorded: nearly fully recovered	–	–	–	54 nM	12 nM	300 nM	160 nM	33 nM	0.0148 s⁻¹	0.0012 s⁻¹	–	180 nM	EC50 [9]: 120 nM; half-life at 250 µM [10]: 3.41 min; turnover curve of absorbance at 400 nm vs. time with rhodesain [10]: hyperbolic turnover curves; IC50 ([5]; [S] = 100 µM (Boc-Gly-Arg-Arg-AMC)): 41000 nM; Ki ([6]; read-out: Cath. B Ki): 1900 nM; k3, cathepsin L ([2]; Method 1): 0.0148 s⁻¹; k4, cathepsin L ([2]; Method 1): 0.0012 s⁻¹; half-life t1/2 of final complex, cathepsin L ([2]; calculated by 0.693/k4): around 10 min
COC(=O)[C@H](CC(C)C)NC(=O)[C@H](Cc1ccccc1)NC1=C(C#N)C(=O)c2ccccc2C1=O [Compound 6]	–	40%	–	–	–	–	–	–	–	–	–	–	–	–	1240 nM	half-life at 250 µM [10]: 10.2 min; turnover curve of absorbance at 400 nm vs. time with rhodesain [10]: hyperbolic turnover curves

Reference: PMC7248907, “Naphthoquinones as Covalent Reversible Inhibitors of Cysteine Proteases—Studies on Inhibition Mechanism and Kinetics” (Molecules, 2020)
